From patent publication US5143911A, “Antibiotic C-3 di-hydroxyphenyl substituted cephalosporin compounds, compositions and method of use thereof” (Bristol-Myers Squibb Company, priority 1990, dated 1992)
Converted amounts (≈) assume the structure as drawn.

Experiments:
[1] = test system: S. epidermidis 11-1168; assay type: cell-based; settings: Staphylococcus epidermidis, 111168, pH 7.2, 32° C. 18 hr, 10^6 cells/ml
[2] = test system: E. faecium A24817; assay type: cell-based; settings: Enterococcus faecium, pH 7.2, 32° C. 18 hr, 10^6 cells/ml
[3] = test system: P. vulgaris IPM-13; assay type: cell-based; settings: Proteus vulgaris, IPM13, pH 7.2, 32° C. 18 hr, 10^6 cells/ml
[4] = test system: P. aeruginosa A20599; assay type: cell-based; settings: Pseudomonas aeruginosa, pH 7.2, 32° C. 18 hr, 10^6 cells/ml
[5] = test system: P. cepacia A21213; assay type: cell-based; settings: Burkholderia cepacia, pH 7.2, 32° C. 18 hr, 10^6 cells/ml
[6] = test system: S. aureus 209P; settings: Staphylococcus aureus, 18 h, pH 7.2
[7] = test system: S. aureus Smith; settings: Staphylococcus aureus, 18 h, pH 7.2
[8] = test system: S. aureus 4-1015 (MRSA); settings: Staphylococcus aureus, 18 h, pH 7.2
[9] = test system: S. aureus IPM-24 (MRSA); settings: Staphylococcus aureus, 18 h, pH 7.2
[10] = test system: S. epidermidis 11-1230; settings: Staphylococcus epidermidis, 111230, 18 h, pH 7.2
[11] = test system: E. faecalis A9808; settings: Enterococcus faecalis, A9808, 18 h, pH 7.2
[12] = test system: M. luteus 1001; settings: Micrococcus luteus, 1001, 18 h, pH 7.2
[13] = test system: B. subtilis PCI 219; settings: Bacillus subtilis, PCI219, 18 h, pH 7.2
[14] = test system: E. coli Juhl A15119; settings: Escherichia coli, JUHLA15119, 18 h, pH 7.2
[15] = test system: E. coli 255; settings: Escherichia coli, 255, 18 h, pH 7.2
[16] = test system: K. pneumoniae PCI 602; settings: Klebsiella pneumoniae, PCI602, 18 h, pH 7.2
[17] = test system: P. mirabilis IFO-2849; settings: Proteus mirabilis, IFO2849, 18 h, pH 7.2
[18] = test system: M. morgani 1510; settings: 18 h, pH 7.2
[19] = test system: M. morgani 1510/9; settings: 18 h, pH 7.2
[20] = test system: P. rettgeri IPM-14; settings: Providencia rettgeri, IPM14, 18 h, pH 7.2
[21] = test system: E. cloacae IPM-12; settings: Enterobacter cloacae, IPM12, 18 h, pH 7.2
[22] = test system: S. marcescens IPM-15; settings: Serratia marcescens, IPM15, 18 h, pH 7.2
[23] = test system: S. marcescens IPM-16; settings: Serratia marcescens, IPM16, 18 h, pH 7.2
[24] = test system: C. freundii GN 7391; settings: Citrobacter freundii, GN7391, 18 h, pH 7.2
[25] = test system: P. aeruginosa KKA 19; settings: Pseudomonas aeruginosa, KKA19, 18 h, pH 7.2
[26] = test system: P. aeruginosa IPM-8; settings: Pseudomonas aeruginosa, IPM8, 18 h, pH 7.2
[27] = test system: P. aeruginosa IPM-9; settings: Pseudomonas aeruginosa, IPM9, 18 h, pH 7.2
[28] = test system: X. maltophilia GN 12873; settings: Stenotrophomonas maltophilia, GN12873, 18 h, pH 7.2
[29] = test system: X. maltophilia No. 661; settings: Stenotrophomonas maltophilia, NO.661, 18 h, pH 7.2
[30] = test system: P. cepacia No. 651; settings: Burkholderia cepacia, NO.651, 18 h, pH 7.2
[31] = test system: C. terrigena IFO 12685; settings: 18 h, pH 7.2
[32] = test system: Penicillin (PC)sensitive S. (5 strains); test: MIC, two-fold serial agar dilution, Mueller-Hinton agar (geometric mean, group Gp-Ia); assay type: cell-based, S. aureus; settings: Staphylococcus aureus
Procedure: (§1) For a primary evaluation of some representative compounds of this invention, minimum inhibitory concentrations (MIC's) were determined against 32 strains of test organisms by two-fold serial agar dilution method in Mueller-Hinton agar.
Gp-Ia: Penicillin (PC)sensitive S.

[33] = test system: PCresistant S. aureus; test: MIC, two-fold serial agar dilution, Mueller-Hinton agar (geometric mean, group Gp-Ib); assay type: cell-based; settings: Staphylococcus aureus, penicillin-resistant S. aureus, 5 strains
Procedure: as §1
GpIb: PCresistant S. aureus

[34] = test system: Cephalothin (CET)sensitive E. coli(2), Kl. pneumoniae(1) and Pr. mirabilis(2); test: MIC, two-fold serial agar dilution, Mueller-Hinton agar (geometric mean, group Gn-Ia); assay type: cell-based; settings: 5 strains
Procedure: as §1
GnIa: Cephalothin (CET)sensitive E. coli(2)*, Kl. pneumoniae(1) and Pr.

[35] = test system: CETresistant E. coli(3), and Kl. pneumoniae(2); test: MIC, two-fold serial agar dilution, Mueller-Hinton agar (geometric mean, group Gn-Ib); assay type: cell-based; settings: Escherichia coli, read-out: Geometric Mean of MIC, Gn-Ib
Procedure: as §1
GnIb: CETresistant E. coli(3), and Kl. pneumoniae(2)

[36] = test system: M. morganii(1), Ent. cloacae(2), and Ser. marcescens(2); test: MIC, two-fold serial agar dilution, Mueller-Hinton agar (geometric mean, group Gn-II); assay type: cell-based; settings: 5 strains
Procedure: as §1
GnII: M. morganii(1), Ent. cloacae(2), and Ser. marcescens(2)

[37] = test system: Ps. aeruginosa (7); test: MIC, two-fold serial agar dilution, Mueller-Hinton agar (geometric mean, group Gn-III); assay type: cell-based; settings: Pseudomonas aeruginosa, 7 strains
Procedure: as §1
GnIII: Ps. aeruginosa (7)

[38] = test system: B. fragilis A 22693; test: In vitro activity against anaerobes (MIC), two-fold serial agar dilution, GAM agar; assay type: cell-based; settings: Bacteroides fragilis, A22693, Gn, Beta-Lactamase(-)
[39] = test system: B. fragilis A 22053; test: as above; assay type: cell-based; settings: Bacteroides fragilis, A22053, Gn, Beta-Lactamase(-)
[40] = test system: B. fragilis A 22021; test: as above; assay type: cell-based; settings: Bacteroides fragilis, A22021, Gn, Beta-Lactamase(-)
[41] = test system: B. fragilis A 21916; test: as above; assay type: cell-based; settings: Bacteroides fragilis, A21916, Gn, Beta-Lactamase(-)
[42] = test system: B. fragilis A 22534; test: as above; assay type: cell-based; settings: Bacteroides fragilis, A22534, Gn, Beta-Lactamase(+)
[43] = test system: B. fragilis A 22695; test: as above; assay type: cell-based; settings: Bacteroides fragilis, A22695, Gn, Beta-Lactamase(+)
[44] = test system: B. fragilis A 22533; test: as above; assay type: cell-based; settings: Bacteroides fragilis, A22533, Gn, Beta-Lactamase(+)
[45] = test system: B. fragilis CUH-108; test: as above; assay type: cell-based; settings: Bacteroides fragilis, CUH108, Gn, Beta-Lactamase(+), Clindamycin-resistant
Procedure: In vitro activity against anaerobic bacteria was determined on eight strains of B. fragilis by two-fold serial agar dilution method in GAM agar.

[46] = test system: C. difficile A 21675; test: In vitro activity against anaerobes (MIC); assay type: cell-based; settings: Clostridioides difficile, A21675, Gp, Clindamycin-resistant
[47] = test system: C. perfringens A9635; test: microbe, parasite or virus in culture; assay type: cell-based; settings: Clostridium perfringens
[48] = test system: P. acnes A 21933; test: In vitro activity against anaerobes (MIC); assay type: cell-based; settings: Cutibacterium acnes, A21933, Gp

Nc1nc(/C(=N/O)C(=O)NC2C(=O)N3C(C(=O)O)=C(/C=C/COC(=O)c4ccc(O)c(O)c4)CSC23)cs1 (stereo not drawn) [Id, 7-[(Z)-2-(2-Aminothiazol-4-yl)-2-hydroxyiminoacetamido]-3-[(E)-3l-(3,4-dihydroxybenzoyloxy)-1-propen-1-yl]-3-cephem-4-carboxylic acid]
MIC [1]: 3.1 µg/mL (≈ 5.52 µM) | MIC [2]: 100 µg/mL (≈ 178 µM) | MIC [3]: > 100 µg/mL | MIC [4]: > 100 µg/mL | MIC [5]: > 100 µg/mL | MIC [6]: 0.8 µg/mL (≈ 1.42 µM) | MIC [7]: 0.8 µg/mL (≈ 1.42 µM) | MIC [8]: 6.3 µg/mL (≈ 11.2 µM) | MIC [9]: 100 µg/mL (≈ 178 µM) | MIC [10]: 6.3 µg/mL (≈ 11.2 µM) | MIC [11]: 12.5 µg/mL (≈ 22.3 µM) | MIC [12]: 0.2 µg/mL (≈ 0.356 µM) | MIC [13]: 0.4 µg/mL (≈ 0.712 µM) | MIC [14]: 0.2 µg/mL (≈ 0.356 µM) | MIC [15]: 0.8 µg/mL (≈ 1.42 µM) | MIC [16]: 0.025 µg/mL (≈ 0.0445 µM) | MIC [17]: 0.2 µg/mL (≈ 0.356 µM) | MIC [18]: 6.3 µg/mL (≈ 11.2 µM) | MIC [19]: 0.2 µg/mL (≈ 0.356 µM) | MIC [20]: 0.4 µg/mL (≈ 0.712 µM) | MIC [21]: > 100 µg/mL | MIC [22]: > 100 µg/mL | MIC [23]: > 100 µg/mL | MIC [24]: 50 µg/mL (≈ 89 µM) | MIC [25]: > 100 µg/mL | MIC [26]: > 100 µg/mL | MIC [27]: > 100 µg/mL | MIC [28]: > 100 µg/mL | MIC [29]: > 100 µg/mL | MIC [30]: > 100 µg/mL | MIC [31]: 0.8 µg/mL (≈ 1.42 µM)

CO/N=C(\C(=O)NC1C(=O)N2C(C(=O)O)=C(/C=C/COC(=O)Nc3ccc(O)c(O)c3)CSC12)c1csc(N)n1 (stereo not drawn) [Ie, 7-[(Z)-2-(2-Aminothiazol-4-yl)-2-methoxyiminoacetamido]-3-[(E)-3-(N-3,4-dihyroxyphenyl)carbamoyloxy-1-propen-1-yl]-3-cephem-4-carboxylic acid]
MIC [32]: 6.3 µg/mL (≈ 10.7 µM) | MIC [33]: 7.2 µg/mL (≈ 12.2 µM) | MIC [34]: 0.23 µg/mL (≈ 0.389 µM) | MIC [35]: 0.46 µg/mL (≈ 0.779 µM) | MIC [36]: 3.6 µg/mL (≈ 6.1 µM) | MIC [37]: 50 µg/mL (≈ 84.7 µM) | MIC [38]: 3.1 µg/mL (≈ 5.25 µM) | MIC [39]: 3.1 µg/mL (≈ 5.25 µM) | MIC [40]: 0.4 µg/mL (≈ 0.677 µM) | MIC [41]: 6.3 µg/mL (≈ 10.7 µM) | MIC [42]: > 100 µg/mL | MIC [43]: 25 µg/mL (≈ 42.3 µM) | MIC [44]: > 100 µg/mL | MIC [45]: 100 µg/mL (≈ 169 µM) | MIC [46]: 50 µg/mL (≈ 84.7 µM) | MIC [47]: 1.6 µg/mL (≈ 2.71 µM) | MIC [48]: 1.6 µg/mL (≈ 2.71 µM)
